Laboratory results as given in patent US20100297020A1, “PHOSPHORYLATED AND PHOSPHONATED PYRONE ANALOGS FOR THERAPEUTIC TREATMENT” (Limerick Biopharma, Inc., priority 2008, published 2010).

Tests used:
AdenosineA1 = molecular target: T1, AdenosineA1 (Homo sapiens, UniProt P30542); assay: AdenosineA1 GTPγS functional assay; format: biochemical; details: 10 μM; compound may be / can be tested
T1 sequence (P30542 1-326): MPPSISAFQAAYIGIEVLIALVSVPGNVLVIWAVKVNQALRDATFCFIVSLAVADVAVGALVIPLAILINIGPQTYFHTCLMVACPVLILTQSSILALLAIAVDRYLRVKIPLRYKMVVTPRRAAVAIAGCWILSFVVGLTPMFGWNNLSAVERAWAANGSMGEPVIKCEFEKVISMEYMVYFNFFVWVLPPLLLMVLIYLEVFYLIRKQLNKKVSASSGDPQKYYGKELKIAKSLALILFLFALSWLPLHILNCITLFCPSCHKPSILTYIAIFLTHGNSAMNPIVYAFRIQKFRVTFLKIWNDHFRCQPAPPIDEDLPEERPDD
Protocol: (§1) The compound is additionally tested in AdenosineA1, AdrenergicA2A, DopamineD25, Histamine H1-, and μ-Opiate GTPγS functional assays using a concentration of 10 μM.
(§2) The compound may be additionally tested in AdenosineA1, AdrenergicA2A, DopamineD25, Histamine H1-, and μ-Opiate GTPγS functional assays using a concentration of 10 μM.
(§3) The compound can be additionally tested in AdenosineA1, AdrenergicA2A, DopamineD25, Histamine H1-, and μ-Opiate GTPγS functional assays using a concentration of 10 μM.

AdrenergicA2A = molecular target: T2, AdrenergicA2A (Homo sapiens, UniProt P08913); assay: AdrenergicA2A GTPγS functional assay; format: biochemical; details: 10 μM; compound may be / can be tested
T2 sequence (P08913 1-465): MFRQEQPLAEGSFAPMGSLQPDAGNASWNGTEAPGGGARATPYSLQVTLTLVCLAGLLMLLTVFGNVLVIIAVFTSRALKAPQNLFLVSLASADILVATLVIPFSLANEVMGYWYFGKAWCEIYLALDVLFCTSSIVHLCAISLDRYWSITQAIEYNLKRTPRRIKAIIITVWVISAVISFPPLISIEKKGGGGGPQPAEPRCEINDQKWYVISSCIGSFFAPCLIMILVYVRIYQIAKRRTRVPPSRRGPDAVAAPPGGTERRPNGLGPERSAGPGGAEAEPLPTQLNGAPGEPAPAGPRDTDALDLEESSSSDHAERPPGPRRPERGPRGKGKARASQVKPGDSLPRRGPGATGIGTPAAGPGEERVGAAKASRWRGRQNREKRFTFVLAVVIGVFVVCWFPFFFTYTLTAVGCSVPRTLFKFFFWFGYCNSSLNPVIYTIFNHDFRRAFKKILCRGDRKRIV
Protocol: as §1, §2, §3

ZDF rats = assay: Oral glucose tolerance test (OGTT) in ZDF rats after the 4 week study; format: in vivo; details: glucose 2 g/Kg PO; compound 2 100 mg/kg, compound 3 50 mg/kg i.p.
Protocol: Following the 4 week study described in Example 26 above, the animals were fasted for 12 hours and on day-29, pre-drug blood samples are collected and glucose level and insulin level are measured. The animals are treated intraperitoneally (i.p.) with the following compounds:
Thirty (30) minutes after the treatment, pre-glucose blood samples are collected and the animals are then dosed with glucose (2 g/Kg, PO). Tail vein blood samples are collected at 30, 60, 90 and 120 minutes. Glucose levela and insulin leveal are measured. FIG. 31 show the plasma glucose level measured during OGTT. […] FIG. 32 show the plasma insulin level measured during OGTT. Phosphonated pyrone analogs raise insulin output in response to OGTT.

[1] = system: rats treated with tacrolimus; assay: Blood glucose in rats co-administered with tacrolimus; format: in vivo; details: tacrolimus 0.5 mg/kg i.p. day 1-25; Compound 2 114 mg/kg i.p. day 11-25
[2] = system: rats treated with tacrolimus; assay: Renal pathology in rats co-administered with tacrolimus; format: in vivo; details: tacrolimus 0.5 mg/kg with vehicle or with Compound 2 at 11, 28 and 114 mg/kg, 25 days
Protocol: Tissue is removed from the kidney of rats treated with tacrolimus (Prograf®) at 0.5 mg/kg and inert vehicle, and from rats treated with tacrolimus (Prograf®) at 0.5 mg/kg and quercetin-3′-O-methylphosphonate (Compound 2) at 11 mg/kg, 28 mg/kg, and at 114 mg/kg for 25 days. […] The tissue from rats treated with Compound 2 and tacrolimus show no vacuoles.

[3] = system: BB19 cells, human BCECs (brain capillary endothelial cells); assay: Tacrolimus uptake assay; format: cell-based; details: Endothelial cell, 1 h, 0.1 μM test compound, 1 hour incubation, 3H-tacrolimus 34 nM, read-out: cell associated ^3H-tacrolimus uptake, % of control
Protocol: (§4) BB19 cells, human BCECs (brain capillary endothelial cells) immortalized with the E6E7 genes of human papilloma virus, were kindly provided from Jacques G. Prudhomme, Department of Biology, University of California, Riverside, U.S.A. The cells were cultured as monolayer culture in Amniomax™-C100 basal medium (catalog number 17001-157) with Amniomax™-C100 supplement (catalog number 12556-049) (Invitrogen, Basel, CH).
(§5) Cells were seeded onto culture surfaces precoated with 10 μg/cm^2 rat tail collagen type I (BD Bioscience, Allschwil, CH) at a density of approximately 50′000 cells/cm^2 and were cultured in an incubator at 37° C. with 5% CO2, 95% fresh air and saturated humidity. For uptake assays, cells were seeded on precoated 96-well plates. Assays were performed at confluency, after 6 days in culture.
(§6) BB19 cells were seeded 50′000 cells/cm^2 on 96-well plates (Falcon) and incubated under condition described above for 6 days. Before starting the assay, cells were washed 2 times with pre-warmed Dulbecco's MEM with Glutamax-I (catalog number 61965) (Invitrogen AG, Basel, CH), supplemented with 1% non essential amino acids, 1% sodium pyruvate, 50 μg/ml gentamycin (Invitrogen AG) (DMEM). Cells were then incubated for 15 min at 37° C. and 120 rpm in DMEM with or without the specified concentrations of test compounds under investigation. After this pre-incubation, cells were incubated in DMEM containing [propyl-3H]-dihydro-FK506 (3H-tacrolimus, 1 μCi/ml, 34 nM) and with or without the specified concentrations of test compounds for 1 hour at 37° C. and 120 rpm. During this 1-hour incubation period, influx and efflux of the substrate, ^3H-tacrolimus, occur. After the 1-hour incubation period, assay was terminated by placing the assay plate on ice and washing the cells twice with ice-cold DMEM. Determination of cell associated ^3H-tacrolimus was performed by addition of Insta Gel and scintillation liquid to trypsinized cells followed by analysis on a scintillation counter (Packard TriCarb2000, Can berra Packard S.A.). The results are expressed as: % of control=100×[^3H-tacrolimus conc. with test compound]/[^3H-tacrolimus conc. with vehicle]

[4] = system: BB19 cells, human BCECs (brain capillary endothelial cells); assay: Cyclosporin uptake assay; format: cell-based; details: 0.1 μM test compound; 1 hour incubation; 0.1 µM
Protocol: as §4, §5, §6
The cyclosporin uptake assay was performed similarly as described above for tacrolimus uptake assay except that ^3H-cyclosporin was used in place of ^3H-tacrolimus.

[5] = Stability in water at about pH 8; details: water at about pH 8, 24 hours, ambient temperature
Protocol: Quercetin-3′-O-phosphate is dissolved in water at about pH 8.
Fisetin-3′-O-phosphate is dissolved in water at about pH 8.
Quercetin-3′-O-methylphosphonate (Compound 2) is dissolved in water at about pH 8.

Structure (SMILES): O=c1c(O)c(-c2ccc(O)c(OCP(=O)(O)O)c2)oc2cc(O)cc(O)c12 [Compound 2, Quercetin-3′-O-methylphosphonic acid]
- antagonist activity in the AdenosineA1 assay (AdenosineA1): 48%
- inhibition in the AdrenergicA2A assay (AdrenergicA2A): marked negative inhibition
- plasma glucose level during OGTT (ZDF rats): protect against hyperglycemia
- blood glucose level (tacrolimus induced hyperglycemia) [1]: attenuate tacrolimus induced hyperglycemia
- vacuolation of kidney tissue [2]: no vacuoles
- activity at 0.1 µM [3]: 51%
- cell associated ^3H-cyclosporin uptake, % of control [4]: 54 % of control
- degradation seen by NMR [5]: no degradation
